Series [1] deals with MS fatigue. The note with it: cited from earlier work.
Series [2] relates to Fos-IR neurons in VLPO, TMN, cortex. Briefly: Fos immunohistochemistry cell counts in rat brain, modafinil given at noon (Example 2). It is filed as in vivo. How it is done:
(§1) Experimental Design: In the following examples, rats were sacrificed two hours following treatment, and the brains were analyzed using immunohistochemistry for Fos. In Examples 1 and 2, rats were instrumented for electroencephalogram (EEG) and electromyogram (EMG) recordings. To avoid the stress of handling during administration of modafinil or vehicle, chronic catheters were placed in the peritoneal cavity for administration of modafinil or vehicle.
(§2) Animals and Recording Environment: 65, male, Sprague-Dawley rats (Harlan) weighing 270-330 g were housed individually in a pathogen-free barrier facility in a room maintained at 21.5-22.5° C. with lights on at 7 AM and off at 7 PM. Rats had food and water available ad lib. At least 3 days before each experiment, rats were placed into a light-tight, sound-attenuated recording chamber (Biocube) in an isolated room. Light intensity was 100-150 lux at midlevel inside each cage. The Institutional Animal Care and Use Committees of Beth Israel Deaconess Medical Center and Harvard Medical School approved all procedures.
(§3) Animal Surgery: Under chloral hydrate anesthesia (350 mg/kg ip), the rats of Examples 1 and 2 were surgically implanted with four EEG screws (AP: +3, −4; RL: +2,−2 from bregma) lightly contacting the dura and two EMG wires (Plastics One, Roanoke, Va.) below the nuchal muscles. The leads were connected to a six channel connector (Plastics One) which was affixed to the skull with dental acrylic. A telemetric temperature transmitter (TA10TA-F40, Data Sciences International, St. Paul, Minn.) was placed in the peritoneal cavity of all but 5 rats. To administer drugs without handling the rats, an 80 cm silastic catheter (1 mm I.D., Baxter Scientific Products) was inserted into the peritoneal cavity, subcutaneously tunneled to the scalp, cemented in place with dental acrylic, and protected externally by a spring. This intraperitoneal catheter was filled with heparinized, pyrogen-free saline and flushed weekly and 3 days prior to the experiment. Animals recovered at least 14 days and then acclimated to recording cables for three days prior to the start of physiological recordings.
(§4) Drug Administration: Modafinil (lot #PA 008; Cephalon, Inc., West Chester, Pa.) was suspended in a solution of 0.25% methylcellulose (pH=7.4, Dow Chemical Inc., Midland, Mich.) in 0.9% pyrogen-free saline. The drug was administered in a volume of 2.0 ml/kg at doses of 150 mg/kg. Control animals received an equal volume of methylcellulose vehicle. Catheters were then flushed with 1 ml 0.9% saline to assure delivery of drug into the peritoneal cavity. A red flashlight was used to aid injections performed in the dark.
(§5) Histology and Immunohistochemistry: Two hours following drug injections, animals were deeply anesthetized with chloral hydrate (600 mg/kg ip) and transcardially perfused with 100 ml 0.9% saline followed by 500 ml of phosphate buffered 10% formalin, pH 7.0 (Sigma). Brains were removed, postfixed for 4 hours in formalin, and then allowed to equilibrate in 20% sucrose in 0.1 M phosphate buffered saline (PBS), with 0.02% sodium azide (Sigma) at 4° C. Brains were sectioned (1:5 series, 30 μm) on a freezing microtome and stored in PBS-azide at 4° C. One series from each brain was stained for Fos using previously described methods (Elmquist et al., 1996). […]

For series [3], the system named is wakefulness. To be noted: rats, cats, canines, non-human primates; also sleep apnea and narcolepsy models; cited from earlier work.
The subject of series [4] is wakefulness. The note with it: cited from earlier work.
The subject of series [5] is TMN of the posterior hypothalamus. The note with it: cats, wake-promoting dose; cited from earlier work.
The test system of series [6] is Fos-IR neurons in cingulate cortex, TMN, VTA. Briefly: Fos immunohistochemistry cell counts in rat brain, modafinil given at midnight (Example 1). The note with it: rats. It is filed as in vivo. The method, then: as §1, §2, §3, §4, §5
For series [7], the system named is TMN. The note with it: rats, wake-promoting doses; cited from earlier work.
The mark [8] stands for this setting: rats on normal LD cycle, 150 mg/kg at noon.
[9] abbreviates: rats, modafinil 150 mg/kg ip at noon, 2 h after treatment, n=7.
Setting [10] is: modafinil 150 mg/kg ip at midnight, 2 h after treatment, mean ± standard error, n=6.

The values that follow come from patent publication US6488164B2, “Compositions including modafinil for treatment of attention deficit hyperactivity disorder and multiple sclerosis fatigue” (Cephalon, Inc., priority 1999, dated 2002).

Turning to `NC12CC3CC(CC(C3)C1)C2` [Amantadine, amantadine], in series [1] (double blind, randomized study), the “Patients with benefit in MS fatigue” value is on record as 79%.

Consider `NC(=O)C[S+]([O-])C(c1ccccc1)c1ccccc1` (stereo not drawn) [Modafinil, modafinil], for which, in series [2] (setting [8]), the “Number of Fos-IR neurons in the TMN (in words)” value is “markedly increased” and the “Number of Fos-IR neurons in the VLPO (in words)” value is recorded as “decreases”. Further, the “Expression of Fos in frontal and cingulate cortex (in words)” value in series [2] (rats, 150 mg/kg at noon) was “increased expression of Fos”. Further, in series [2] (setting [9]), the “Fos-IR cell count, TMN” value was 43 ± 5 and the “Fos-IR cell count, VLPO” value is listed as 26 ± 3. In addition, in series [3], the “Wakefulness (in words)” value is on record as “promotes wakefulness”. The “Tolerability in clinical trials” value in series [4] (400 mg/day, humans) was “well tolerated”. In addition, the “Optimum wakefulness promoting dose” value in series [4] (adult humans) was 200 mg/day. Also, the “Lower threshold of wake-promoting doses” value in series [4] (human oral, known in the art) is “about 100 mg/day”. For the same molecule, in series [5], the “Activation of the TMN of the posterior hypothalamus (in words)” value is recorded as “failed to cause activation of the TMN”. In addition, the “Fos-IR neurons in TMN relative to controls” value in series [6] (150 mg/kg at midnight) is “four times as many”. In addition, the “Fos immunoreactivity in the cortex versus controls” value in series [6] (150 mg/kg at midnight, more pronounced in cingulate and pyriform cortex) is on record as “more Fos immunoreactivity in the cortex than the controls”. Also, in series [6] (setting [10]), the “Fos-IR cell count, TMN” value was 46 ± 4; the “Fos-IR cell count, VTA” value came out at 12 ± 3; the “Fos-IR cell count, cingulate cortex” value stood at 191 ± 38. Besides, in series [7], the “Association of modafinil-induced wakefulness with activation of the TMN (in words)” value is “not associated with activation of the TMN”.

As for `NC1=NC(=O)C(c2ccccc2)O1` (stereo not drawn) [pemoline], the “Beneficial effect in MS fatigue (in words)” value in series [1] (same study, MS patients) is “failed to show a beneficial effect”.
